Data as given in US20200009135A1, “THERAPEUTIC APPLICATIONS OF MALT1 INHIBITORS” (MEDIVIR AB, priority 2017, published 2020).

Experiments:
[1] = test system: CMV-specific (NLV+) CD8+ Teff cells expressing IFNγ or TNFα; assay: Human whole blood stimulated with (MTTE)3-CMV vaccine; type: cell-based; conditions: 4 μM with 120 nM (MTTE)3-CMV vaccine, 6 hours, three donors
Protocol: Freshly drawn whole blood from healthy volunteers (2 mL) in a tube was incubated under rotation at 37° C. for 6 hours. […]. After 2 hours Brefeldin-A was added to allow intra-cellular analysis of cytokines (IFNγ and TNFα) by flow-cytometry. Antigen-specific CD8+ T-cells were identified by fluorescence-conjugated tetrameric complexes of HLA-A2 molecules loaded with the NLV peptide epitope ([…]) of CMV pp65.

[2] = test system: IL-2 expression in Jurkat (E6-1) cells; assay: IL-2 expression assay (down-stream MALT1 activity, Jurkat E6-1); type: cell-based; conditions: Homo sapiens; Jurkat E6-1, PMA/Ionomycin stimulation, 24 hours
Protocol: Down-stream MALT1 activity was measured by PMA/lonomycin-induced expression of IL-2 in Jurkat (E6-1) cells. Compounds were distributed in a 96 well plate, 8-point concentration series, 1:3 dilution. Jurkat clone E6-1, 4×10^4 cells/well, were added, and stimulated by PMA/lonomycin (1:500 dilution) for 24 hours at 37° C. Measurement was performed using a MesoScale Sector S600 with the Human IL-2 Tissue Culture kit according to the manufacturers recommendation.

[3] = test system: panel of human cancer cell lines; assay: Human cancer cell line panel (Oncolead), GI50, 72 hours; type: cell-based
[4] = test system: Treg suppression of CD4+CD25- effector T cell proliferation; assay: Treg suppressive activity (suppression of CD4+CD25- effector T cell proliferation); type: cell-based, human
Protocol: PBMC were isolated from fresh blood by differential density centrifugation using Ficoll-PLUS (GE Healthcare). Cells were washed three times in RPMI+1% heat-inactivated foetal calf serum (HI-FCS)+1% penicillin/streptomycin (P/S) (1% RPMI), then resuspended in PBS+2% heat inactivated foetal calf serum (HI-FCS)+2.0 mM EDTA (isolation buffer). CD4+CD25- and CD4+CD25+ T cells were isolated, per the manufacturer's instructions (Miltenyi CD4+CD25+ Regulatory T cell Isolation Kit, human). Isolated CD4+CD25− T cells were then labeled with Cell Proliferation Dye eFluor® 450 per manufacturer's instructions (eBioscience). An aliquot of cells was stained with anti-CD3 and anti-CD4 (BioLegend and eBioscience) to assess cell purity and dye labeling by flow cytometry. Cultures were plated in cRPMI, with […] CD4+CD25− cells per well. […]
FIG. 2. The proliferation of CD4+CD25− T cells, purified from a different donor and labelled with Cell Proliferation Dye eFluor® 450, was assessed following a 4 day activation with anti-CD3/CD28 beads. There was a robust proliferation of the cells, and they were readily distinguished from unlabeled cultured cells (generated in the 10 day culture period).
The number of proliferating CD4+CD25− “effector” T cells was determined at each ratio (1:4, 1:2, 1:1) of these cells to the cultured cells generated in the previous 10 day culture period (cultured “Treg”). […]

[5] = test system: MB49 mouse bladder cancer; assay: MB49 mouse bladder cancer model, Treg and Teff cells by flow cytometry; type: in vivo; conditions: C57BL/6 mice
Protocol: Evaluation of Treg and Teff cell numbers was performed by flow cytometry. From a tumour sample (resected piece or biopsy), tumour cells and TILs are dispersed into single cell suspension. Cells are then washed with PBS and stained by antibodies. Samples were stained with antibodies to identify T-cell subpopulations; CD3-BV421 (Biolegend 100228), CD8-FITC (Biolegend 100706), CD4-PE (Biolegend 116005), CD25-PerCP Cy5.5 (Biolegend 101912, clone 3C7), for 15 minutes at room temperature, followed by addition of erythrocyte lysis buffer (cat no. 349202, BD BioSciences, Franklin Lakes, N.J., USA) for 8 minutes. Cells were permeabilized with FoxP3 fix/Perm (cat no. 421401, Biolegend San Diego, Calif., USA), washed with FoxP3 Perm buffer (Cat no. 421402, Biolegend) and stained with an Alexa Fluor® 647 labelled FoxP3 antibody (Cat no. 320013, Biolegend) according to the manufacturer's instructions. The cells were washed twice in PBS with 1% BSA and analyzed on a FACSCanto II (BD Biosciences). Data analysis was performed using FlowJo software (TreeStar, Ashland, Oreg., USA). For intracellular staining of cytokines, inclusion of transport inhibitors e.g. Monensin or Brefeldin A.
The murine bladder urothelial carcinoma cell line Mouse Bladder (MB)-49 is a C57BL/6-derived cell line cultured at 37 C and 5% CO2 in DMEM+GlutaMax supplemented with 10% FBS, 0.1 mM sodium pyruvate, 100 U/ml Penicillin-Streptomycin. For determining the effects of MALT1 inhibitor on the presence of T-effector and T-regulatory cells in vivo, 3×10^5 MB49 cells were injected s.c. on the right flank of female C57BL/6 mice. […] As reference 200 μg of anti-CD25 antibody (clone PC61) in 100 μL PBS was administered i.v. on day 8 and 11. The levels of Treg and Teff cells were analyzed by flow cytometry in the tumour (T) and in tumour-draining lymph nodes (TDLN) on day 12.

[6] = p.o. once daily day 8-11, two doses, analysed day 12

CO[C@@H](C)c1c(NC(=O)Nc2cnc(-n3nccn3)c(Cl)c2)cnc2cc(Cl)nn12 [Example 2, (S)-1-(5-chloro-6-(2H-1,2,3-triazol-2-yl)pyridin-3-yl)-3-(2-chloro-7-(1-methoxyethyl)pyrazolo[1,5-a]pyrimidin-6-yl)urea]
percentage of activated antigen-specific IFNγ+ and TNFα+ CD8+ T cells [1]: increase
IC50 [2]: 0.01 µM
antiproliferative effect on the majority of cell lines tested ([3]; 81 solid and 12 hematological cancer cell lines, 50 μM to 0.05 nM): essentially no antiproliferative effect
GI50 ([3]; Homo sapiens, WSU-NHL cell line, not confirmed in follow-up assay): < 1 µM
Treg suppression of effector cell proliferation, donor 1 ([4]; donor 1, 0.4 μM, 0.4 μM and 4.0 μM): reduced
Treg suppression of proliferation of responding effector T cells, donors 2 and 3 ([4]; donors 2 and 3, increasing concentrations): reduced by increasing concentrations
amount of CD8/CD25 double positive cells (Teff) in TDLN ([5]; p.o. once daily day 8-11, analysed day 12): not reduced
percentage of FOXP3 positive cells (Treg) out of CD3/CD4 double positive cells in tumour [5, 6]: reduced, in a dose-dependent manner
percentage of FOXP3 positive cells (Treg) out of CD3/CD4 double positive cells in tumour-draining lymph nodes [5, 6]: reduced, in a dose-dependent manner
